Columns and labels:
[1] = biological target: BDNF/NT-3 growth factors receptor (Homo sapiens, UniProt Q16620); experiment: Inhibition of wild type TrkB (unknown origin) using poly(Glu: Tyr) as substrate preincubated for 15 mins followed by substrate addition and further incubated for 30 mins in presence of [gamma-33P]ATP by scintillation counting method
BaF3 [2] = experiment: cells; conditions: Mus musculus
Description: Cytotoxicity against mouse BaF3 cells harboring TEL fused TrkC G613R mutant assessed as inhibition of cell growth by MTT assay

BaF3 [3] = experiment: cells; conditions: Mus musculus, BaF3, 72 h
Description: Cytotoxicity against mouse BaF3 cells expressing TEL fused TrkC G623R assessed as inhibition of cell growth incubated for 3 days by CCK-8 assay

cells = conditions: Homo sapiens, KM12-Luc, 72 h
Description: Cytotoxicity against human KM12-Luc cells expressing TPM3 fused TrkA assessed as inhibition of cell growth incubated for 3 days by CCK-8 assay

BaF3 [4] = experiment: Cytotoxicity against mouse BaF3 cells expressing LMNA fused TrkA F589L mutant assessed as inhibition of cell growth incubated for 3 days by CCK-8 assay; format: functional, cell-based; conditions: BaF3, 72 h
BaF3 [5] = experiment: cells; conditions: Mus musculus, BaF3, 72 h; remark: listed apart in the source
Description: Cytotoxicity against mouse BaF3 cells expressing CD74 fused TrkA assessed as inhibition of cell growth incubated for 3 days by CCK-8 assay

BaF3 [6] = experiment: cells; conditions: Mus musculus, BaF3, 72 h; remark: listed apart in the source
Description: Cytotoxicity against mouse BaF3 cells expressing TEL fused TrkC assessed as inhibition of cell growth incubated for 3 days by CCK-8 assay

BaF3 [7] = experiment: cells; conditions: Mus musculus, BaF3, 72 h; remark: listed apart in the source
[8] = biological target: High affinity nerve growth factor receptor (Homo sapiens, UniProt P04629); experiment: Inhibition of wild type TrkA (unknown origin) using poly(Glu: Tyr) as substrate preincubated for 15 mins followed by substrate addition and further incubated for 30 mins in presence of [gamma-33P]ATP by scintillation counting method
in vitro = conditions: mouse, BaF3 cells
Description: Cytotoxicity against mouse BaF3 assessed as inhibition of cell growth incubated for 3 days by CCK-8 assay

BaF3 [9] = experiment: cells; conditions: Mus musculus, BaF3, 72 h; remark: listed apart in the source
Description: Cytotoxicity against mouse BaF3 cells expressing LMNA fused TrkA G667S mutant assessed as inhibition of cell growth incubated for 3 days by CCK-8 assay

BaF3 [10] = experiment: cells; conditions: Mus musculus, BaF3, 72 h; remark: listed apart in the source
Description: Cytotoxicity against mouse BaF3 cells expressing TEL fused TrkA assessed as inhibition of cell growth incubated for 3 days by CCK-8 assay

BaF3 [11] = experiment: cells; conditions: Mus musculus, BaF3, 72 h; remark: listed apart in the source
BaF3 [12] = experiment: cells; conditions: Mus musculus, BaF3, 72 h; remark: listed apart in the source
Description: Cytotoxicity against mouse BaF3 cells expressing TEL fused TrkC G696C assessed as inhibition of cell growth incubated for 3 days by CCK-8 assay

Sequence of BDNF/NT-3 growth factors receptor (Q16620 whole entry): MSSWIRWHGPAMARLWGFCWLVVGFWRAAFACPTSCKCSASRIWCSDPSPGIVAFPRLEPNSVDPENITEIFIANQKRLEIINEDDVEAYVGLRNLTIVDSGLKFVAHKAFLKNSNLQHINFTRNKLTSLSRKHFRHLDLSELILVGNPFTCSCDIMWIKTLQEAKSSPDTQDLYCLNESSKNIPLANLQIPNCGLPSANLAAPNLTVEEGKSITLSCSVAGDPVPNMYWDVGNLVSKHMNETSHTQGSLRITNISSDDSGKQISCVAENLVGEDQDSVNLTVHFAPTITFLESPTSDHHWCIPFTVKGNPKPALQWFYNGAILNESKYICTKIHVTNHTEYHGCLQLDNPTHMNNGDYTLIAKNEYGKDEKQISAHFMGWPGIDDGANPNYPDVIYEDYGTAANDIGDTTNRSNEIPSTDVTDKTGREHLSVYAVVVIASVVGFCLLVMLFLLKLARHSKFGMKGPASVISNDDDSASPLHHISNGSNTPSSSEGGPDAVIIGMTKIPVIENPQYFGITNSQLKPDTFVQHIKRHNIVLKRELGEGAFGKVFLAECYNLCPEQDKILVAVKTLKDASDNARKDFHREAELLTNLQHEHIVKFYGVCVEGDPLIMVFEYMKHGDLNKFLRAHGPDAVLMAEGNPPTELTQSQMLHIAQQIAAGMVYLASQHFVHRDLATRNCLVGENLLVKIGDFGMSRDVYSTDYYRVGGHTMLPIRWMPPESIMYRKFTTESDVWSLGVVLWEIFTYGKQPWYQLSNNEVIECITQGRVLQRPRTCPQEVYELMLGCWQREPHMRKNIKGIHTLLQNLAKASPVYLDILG
Sequence of High affinity nerve growth factor receptor (P04629 whole entry): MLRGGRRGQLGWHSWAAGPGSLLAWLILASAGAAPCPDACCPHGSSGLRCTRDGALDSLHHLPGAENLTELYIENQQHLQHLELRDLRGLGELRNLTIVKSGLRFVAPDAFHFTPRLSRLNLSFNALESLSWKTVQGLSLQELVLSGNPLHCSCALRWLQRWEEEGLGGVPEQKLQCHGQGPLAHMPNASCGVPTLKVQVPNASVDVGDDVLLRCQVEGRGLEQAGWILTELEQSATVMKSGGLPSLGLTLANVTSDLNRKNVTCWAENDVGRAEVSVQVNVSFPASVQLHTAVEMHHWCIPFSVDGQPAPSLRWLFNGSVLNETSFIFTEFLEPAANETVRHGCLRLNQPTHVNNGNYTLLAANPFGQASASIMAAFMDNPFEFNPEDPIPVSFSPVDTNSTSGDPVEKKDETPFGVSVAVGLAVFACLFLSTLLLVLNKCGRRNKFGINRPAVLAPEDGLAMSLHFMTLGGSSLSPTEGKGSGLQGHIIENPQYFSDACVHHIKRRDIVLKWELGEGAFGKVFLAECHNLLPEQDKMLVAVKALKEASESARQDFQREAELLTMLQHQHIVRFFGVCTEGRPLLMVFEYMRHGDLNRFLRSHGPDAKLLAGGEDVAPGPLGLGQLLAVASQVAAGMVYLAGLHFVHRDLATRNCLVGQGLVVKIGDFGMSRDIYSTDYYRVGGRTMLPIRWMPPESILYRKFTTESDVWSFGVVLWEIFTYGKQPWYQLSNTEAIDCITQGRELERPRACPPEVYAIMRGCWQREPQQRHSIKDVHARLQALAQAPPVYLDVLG

Structure (SMILES) | IC50 [1] | IC50 (BaF3 [2]) | IC50 [8] | also measured
CC1(C)Oc2c(ncnc2Nc2cccc(NC(=O)Nc3cc(C(C)(C)C)nn3-c3ccccc3)c2)NC1=O | 342 nM | > 10000 nM | – | –
Cc1cc(NC(=O)Nc2cc(C(C)(C)C)nn2-c2ccccc2)ccc1Nc1ncnc2c1OC(C)(C)C(=O)N2 | – | 51 nM | 13 nM | IC50 (BaF3 [3]): 51 nM; IC50 (cells): 21 nM; IC50 (BaF3 [4]): 19 nM; IC50 (BaF3 [5]): 5 nM; IC50 (BaF3 [6]): 39 nM; IC50 (BaF3 [7]): 151 nM; IC50 at 3 days (in vitro): > 10000 nM; IC50 (BaF3 [9]): 34 nM; IC50 (BaF3 [10]): 15 nM; IC50 (BaF3 [11]): 2 nM
CC1(C)Oc2c(ncnc2Nc2ccc(NC(=O)Nc3cc(C(C)(C)C)nn3C3CCCCC3)cc2)NC1=O | 228 nM | 1560 nM | 344 nM | –
CC1(C)Oc2c(ncnc2Nc2ccc(NC(=O)Nc3cc(C(C)(C)C)nn3C(C)(C)C)cc2)NC1=O | 1400 nM | > 10000 nM | 6200 nM | –
CC1(C)Oc2c(ncnc2Nc2ccc(NC(=O)Nc3cccc(F)c3)cc2)NC1=O | > 10000 nM | – | > 10000 nM | –
CC1(C)Oc2c(ncnc2Nc2ccc(NC(=O)NC34C[C@H]5C[C@@H](C3)C[C@@H](C4)C5)cc2)NC1=O | > 10000 nM | – | > 10000 nM | –
CC1(C)Oc2c(ncnc2Nc2ccc(NC(=O)Nc3cc(C(F)(F)F)cc(C(F)(F)F)c3)cc2)NC1=O | 202 nM | 5080 nM | 100 nM | –
C=CCNC(=O)Nc1ccc(Nc2ncnc3c2OC(C)(C)C(=O)N3)cc1 | > 10000 nM | – | > 10000 nM | –
Cc1cc(NC(=O)Nc2cc(C(C)(C)C)nn2-c2ccc(C(F)(F)F)cc2)ccc1Nc1ncnc2c1OC(C)(C)C(=O)N2 | – | 86 nM | – | IC50 (BaF3 [3]): 86 nM; IC50 (cells): 13 nM; IC50 (BaF3 [4]): 13 nM; IC50 (BaF3 [5]): 2 nM; IC50 (BaF3 [12]): 3 nM; IC50 at 3 days (in vitro): > 10000 nM; IC50 (BaF3 [9]): 10 nM; IC50 (BaF3 [10]): 2 nM; IC50 (BaF3 [11]): 2 nM
CC1(C)Oc2c(ncnc2Nc2ccc(NC(=O)Nc3cc(C(C)(C)C)nn3-c3ccccc3)c(C(F)(F)F)c2)NC1=O | 182 nM | 3900 nM | 149 nM | –
Cc1ccc(NC(=O)Nc2ccc(Nc3ncnc4c3OC(C)(C)C(=O)N4)cc2)cc1 | > 10000 nM | – | > 10000 nM | –
Cn1nc(C(C)(C)C)cc1NC(=O)Nc1ccc(Nc2ncnc3c2OC(C)(C)C(=O)N3)cc1 | > 10000 nM | – | > 10000 nM | –
CCNC(=O)Nc1ccc(Nc2ncnc3c2OC(C)(C)C(=O)N3)cc1 | > 10000 nM | – | > 10000 nM | –
CC(C)n1nc(C(C)(C)C)cc1NC(=O)Nc1ccc(Nc2ncnc3c2OC(C)(C)C(=O)N3)cc1 | > 10000 nM | > 10000 nM | > 10000 nM | –
CC1(C)Oc2c(ncnc2Nc2ccc(NC(=O)Nc3ccc(Cl)c(C(F)(F)F)c3)cc2)NC1=O | 381 nM | 1350 nM | 211 nM | –
Cc1cc(NC(=O)Nc2cc(-c3ccccc3)nn2-c2ccccc2)ccc1Nc1ncnc2c1OC(C)(C)C(=O)N2 | 171 nM | 1900 nM | 38 nM | –
CC(C)(C)NC(=O)Nc1ccc(Nc2ncnc3c2OC(C)(C)C(=O)N3)cc1 | > 10000 nM | – | > 10000 nM | –
Cc1cc(NC(=O)Nc2cc(C(C)(C)C)nn2-c2ccc3ccccc3c2)ccc1Nc1ncnc2c1OC(C)(C)C(=O)N2 | 245 nM | > 10000 nM | 41 nM | –
O=C(Nc1cnn2ccc(N3CCC[C@@H]3c3cc(F)ccc3F)nc12)N1CC[C@H](O)C1 [LAROTRECTINIB] | – | – | – | IC50 (BaF3 [3]): 1490 nM; IC50 (cells): 11 nM; IC50 (BaF3 [4]): 547 nM; IC50 (BaF3 [5]): 1 nM; IC50 (BaF3 [6]): 59 nM; IC50 (BaF3 [12]): 586 nM; IC50 (BaF3 [7]): 4060 nM; IC50 at 3 days (in vitro): 3570 nM; IC50 (BaF3 [9]): 321 nM; IC50 (BaF3 [10]): 11 nM; IC50 (BaF3 [11]): 1260 nM
CC1(C)Oc2c(ncnc2Nc2ccc(NC(=O)Nc3ccc(F)c(F)c3)cc2)NC1=O | > 10000 nM | – | > 10000 nM | –
CC1(C)Oc2c(ncnc2Nc2ccc(NC(=O)Nc3ccc(C#N)cc3)cc2)NC1=O | > 10000 nM | – | > 10000 nM | –
CC1(C)Oc2c(ncnc2Nc2ccc(NC(=O)NC3CCCCC3)cc2)NC1=O | > 10000 nM | – | > 10000 nM | –

More lines, main results first:

IC50 [1] | IC50 (BaF3 [2]) | IC50 [8] | Structure (SMILES) | also measured
12 nM | 245 nM | 30 nM | Cc1cc(NC(=O)Nc2cc(C(C)(C)C)nn2-c2ccc(F)cc2)ccc1Nc1ncnc2c1OC(C)(C)C(=O)N2 | –
38 nM | 978 nM | 81 nM | CC1(C)Oc2c(ncnc2Nc2ccc(NC(=O)Nc3cc(C(C)(C)C)nn3-c3ccccc3)c(F)c2)NC1=O | –
17 nM | 4020 nM | – | CC1(C)Oc2c(ncnc2Nc2ccc(NC(=O)Nc3cccc(C(F)(F)F)c3)cc2)NC1=O | –
22 nM | 709 nM | 14 nM | Cc1cc(NC(=O)Nc2cc(C(C)(C)C)nn2-c2cccnc2)ccc1Nc1ncnc2c1OC(C)(C)C(=O)N2 | –
10 nM | 2010 nM | 23 nM | Cc1cc(NC(=O)Nc2cc(C3CC3)nn2-c2ccccc2)ccc1Nc1ncnc2c1OC(C)(C)C(=O)N2 | –
33 nM | 3760 nM | 156 nM | CC1(C)Oc2c(ncnc2Nc2ccc(NC(=O)Nc3cc(C(C)(C)C)on3)cc2)NC1=O | –
15 nM | 3270 nM | 20 nM | Cc1cc(NC(=O)Nc2cc(C(C)(C)C)nn2-c2ccccc2F)ccc1Nc1ncnc2c1OC(C)(C)C(=O)N2 | –
123 nM | 9290 nM | 50 nM | COc1cc(NC(=O)Nc2cc(C(C)(C)C)nn2-c2ccccc2)ccc1Nc1ncnc2c1OC(C)(C)C(=O)N2 | –
14 nM | 1140 nM | 13 nM | Cc1cc(NC(=O)Nc2cc(C(C)(C)C)nn2-c2cccc(F)c2)ccc1Nc1ncnc2c1OC(C)(C)C(=O)N2 | –
18 nM | 58 nM | 22 nM | Cc1ccc(-n2nc(C(C)(C)C)cc2NC(=O)Nc2ccc(Nc3ncnc4c3OC(C)(C)C(=O)N4)c(C)c2)cc1 | IC50 (BaF3 [3]): 58 nM; IC50 (cells): 6 nM; IC50 (BaF3 [4]): 4 nM; IC50 (BaF3 [5]): 5 nM; IC50 (BaF3 [6]): 13 nM; IC50 (BaF3 [12]): 2 nM; IC50 (BaF3 [7]): 31 nM; IC50 at 3 days (in vitro): 2990 nM; IC50 (BaF3 [9]): 4 nM; IC50 (BaF3 [10]): 1 nM; IC50 (BaF3 [11]): 1 nM
88 nM | 6040 nM | 127 nM | Cc1cc(Nc2ncnc3c2OC(C)(C)C(=O)N3)ccc1NC(=O)Nc1cc(C(C)(C)C)nn1-c1ccccc1 | –
88 nM | 382 nM | 87 nM | CC1(C)Oc2c(ncnc2Nc2ccc(NC(=O)Nc3cc(C(C)(C)C)nn3-c3ccccc3)c3ccccc23)NC1=O | –
10 nM | 978 nM | 38 nM | COc1cc(Nc2ncnc3c2OC(C)(C)C(=O)N3)ccc1NC(=O)Nc1cc(C(C)(C)C)nn1-c1ccccc1 | –
42 nM | 740 nM | 52 nM | Cc1cc(NC(=O)Nc2cc(C(C)(C)C)nn2-c2c(F)c(F)c(F)c(F)c2F)ccc1Nc1ncnc2c1OC(C)(C)C(=O)N2 | –
106 nM | 230 nM | 89 nM | CSc1cc(Nc2ncnc3c2OC(C)(C)C(=O)N3)ccc1NC(=O)Nc1cc(C(C)(C)C)nn1-c1ccccc1 | –
21 nM | 396 nM | 35 nM | CC1(C)Oc2c(ncnc2Nc2ccc(NC(=O)Nc3cc(C(C)(C)C)nn3-c3ccccc3)cc2)NC1=O | –
19 nM | 34 nM | 9 nM | Cc1cc(NC(=O)Nc2cc(C(C)(C)C)nn2-c2ccc(F)c(F)c2)ccc1Nc1ncnc2c1OC(C)(C)C(=O)N2 | IC50 (BaF3 [3]): 34 nM; IC50 (cells): 8 nM; IC50 (BaF3 [4]): 10 nM; IC50 (BaF3 [5]): 5 nM; IC50 (BaF3 [6]): 25 nM; IC50 (BaF3 [12]): 2 nM; IC50 (BaF3 [7]): 82 nM; IC50 at 3 days (in vitro): > 10000 nM; IC50 (BaF3 [9]): 14 nM; IC50 (BaF3 [10]): 2 nM; IC50 (BaF3 [11]): 1 nM
48 nM | 6520 nM | 111 nM | CC1(C)Oc2c(ncnc2Nc2ccc(NC(=O)Nc3cc(C(C)(C)C)no3)cc2)NC1=O | –
40 nM | 86 nM | 46 nM | Cc1cc(NC(=O)Nc2cc(C(C)(C)C)nn2-c2ccc(OC(F)(F)F)cc2)ccc1Nc1ncnc2c1OC(C)(C)C(=O)N2 | –

— ChEMBL document CHEMBL5042533, “Structural Optimization and Structure-Activity Relationship Studies of 6,6-Dimethyl-4-(phenylamino)-6H-pyrimido[5,4-b][1,4]oxazin-7(8H)-one Derivatives as A New Class of Potent Inhibitors of Pan-Trk and Their Drug-Resistant Mutants” (J Med Chem, 2022)
